Values of other authors, collected in patent US20230406931A1, “Adjuvant Durvalumab in Combination with Chemotherapy for Treatment of Cancer” (ASTRAZENECA AB, priority 2020, published 2023).

Key:
PD-L1 = PD-L1 (Homo sapiens, UniProt Q9NZQ7); conditions: in vitro; cited from earlier work
xenograft tumor = conditions: xenograft model, via a T-cell dependent mechanism; cited from earlier work
[1] = durvalumab versus placebo following definitive concurrent chemoradiation, PACIFIC study; cited from earlier work

PD-L1, sequence (Q9NZQ7 19-290): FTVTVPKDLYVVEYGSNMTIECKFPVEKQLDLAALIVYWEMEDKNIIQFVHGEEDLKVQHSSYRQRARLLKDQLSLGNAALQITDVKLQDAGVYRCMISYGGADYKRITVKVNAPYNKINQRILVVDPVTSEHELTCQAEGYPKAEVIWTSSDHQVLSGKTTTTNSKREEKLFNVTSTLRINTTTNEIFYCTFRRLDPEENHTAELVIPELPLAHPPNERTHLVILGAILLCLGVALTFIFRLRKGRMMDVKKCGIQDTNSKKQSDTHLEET

durvalumab: antibody that selectively binds PD-L1 and blocks the binding of PD-L1 to the PD-1 and CD80 receptors
relief of PD-L1-mediated suppression of human T-cell activation (PD-L1): relieve PD-L1-mediated suppression of human T-cell activation
tumor growth (xenograft tumor): inhibits tumor growth
overall survival (OS) [1]: improved
progression-free survival (PFS) [1]: improved
